# Assays:
# Format in all cases: in vivo
# weedy Glycine max = experiment: Greenhouse post-emergence herbicidal efficacy on weedy Glycine max
# Protocol: (§1) Evaluation of Post-Emergence Herbicidal Activity of Combinations Under Field Conditions
# (§2) Methodology: Greenhouse trials were carried out to evaluate the efficacy of the combination of L-glufosinate and the other herbicides on weeds such as Glycine max, Spermacoce verticilata, Eleusine indica, Brachiaria decumbens. The soil used was sandy clay loam—Sand: 68.0%; Silt: 8.0%; Clay: 24.0%. All treatments were conducted in 4 replications per treatment with a spray volume of […].
# (§3) The expected efficacy of a combination of L-glufosinate and the other herbicides was calculated using the well-established Colby method. Any difference between the observed and “expected” efficacy could be attributed to synergy between the two compounds.
# (§4) In the Colby method, the expected (or predicted) response of a combination of herbicides is calculated by taking the product of the observed response for each individual component of the combination when applied alone, divided by 100, and subtracting this value from the sum of the observed response for each component when applied alone. An unexpected enhancement in efficacy of the combination is then determined by comparing the observed response of the combination to the expected (or predicted) response as calculated from the observed response of each individual component alone. If the observed response of the combination is greater than the expected (or predicted) response, or stated conversely, if the difference between the observed and expected response is greater than zero, then the combination is said to be synergistic or unexpectedly effective (Colby, S. R., Weeds, 1967(15), p. 20-22). The Colby method requires only a single dose of each herbicide applied alone and the mixture of both doses. The formula used to calculate the expected efficacy (EE) which was compared with the observed efficacy (OE) to determine the efficacy of the present invention is explained hereinbelow:
# (§5) The expected efficacy for a combination of two active ingredients is as follows:
# (§6) The expected efficacy for a combination of three active ingredients is as follows:
# (§7) Where, • A=Observed efficacy of active ingredient A at the same concentration as used in the mixture. • B=Observed efficacy of the active ingredient B at the same concentration as used in the mixture. • C=Observed efficacy of the active ingredient C at the same concentration as used in the mixture.
# Spermacoce latifolia = experiment: Greenhouse post-emergence herbicidal efficacy on Spermacoce latifolia; conditions: L-glufosinate 150, imazethapyr 75, carfentrazone 7.5 g a.i./h
# Protocol: as §1, §2, §3, §4, §5, §6, §7
# Brachiaria decumbens = experiment: Greenhouse post-emergence herbicidal efficacy on Brachiaria decumbens
# Protocol: as §1, §2, §3, §4, §5, §6, §7
# Eleusine indica = experiment: Greenhouse post-emergence herbicidal efficacy on Eleusine indica
# Protocol: as §1, §2, §3, §4, §5, §6, §7
# Borreria verticillata = experiment: Greenhouse post-emergence herbicidal efficacy on Borreria verticillata; conditions: L-glufosinate 150, imazapic and imazapyr 31.5 + 10.5 g a.i./h
# Protocol: as §1, §2, §3, §4, §5, §6, §7
# Amaranthus viridus = experiment: Greenhouse post-emergence herbicidal efficacy on Amaranthus viridus; conditions: Table 11, 3 DAA, L-glufosinate 150, imazapic and imazapyr 31.5 + 10.5 g a.i./h
# Protocol: as §1, §2, §3
# In the Colby method, the expected (or predicted) response of a combination of herbicides is calculated by taking the product of the observed response for each individual component of the combination when applied alone, divided by 100, and subtracting this value from the sum of the observed response for each component when applied alone. An unexpected enhancement in efficacy of the combination is then determined by comparing the observed response of the combination to the expected (or predicted) response as calculated from the observed response of each individual component alone. […]
# [1] = Table 9, 21 DAA, L-glufosinate 150, saflufenacil 30, 2,4 D 228 g a.i./h
# [2] = Table 9, 28 DAA, L-glufosinate 150, saflufenacil 30, 2,4 D 228 g a.i./h
# [3] = Table 9, 35 DAA, L-glufosinate 150, saflufenacil 30, 2,4 D 228 g a.i./h
# [4] = Table 3, 14 DAA, L-glufosinate 150, imazethapyr 75, carfentrazone 7.5 g a.i./h
# [5] = Table 3, 21 DAA, L-glufosinate 150, imazethapyr 75, carfentrazone 7.5 g a.i./h
# [6] = Table 3, 28 DAA, L-glufosinate 150, imazethapyr 75, carfentrazone 7.5 g a.i./h
# [7] = Table 3, 35 DAA, L-glufosinate 150, imazethapyr 75, carfentrazone 7.5 g a.i./h
# [8] = Table 6, 7 DAA, L-glufosinate 150, imazethapyr 75, carfentrazone 7.5 g a.i./h
# [9] = Table 6, 14 DAA, L-glufosinate 150, imazethapyr 75, carfentrazone 7.5 g a.i./h
# [10] = Table 6, 21 DAA, L-glufosinate 150, imazethapyr 75, carfentrazone 7.5 g a.i./h
# [11] = Table 6, 28 DAA, L-glufosinate 150, imazethapyr 75, carfentrazone 7.5 g a.i./h
# [12] = Table 6, 35 DAA, L-glufosinate 150, imazethapyr 75, carfentrazone 7.5 g a.i./h
# [13] = Table 4, 3 DAA, L-glufosinate 150, imazethapyr 75, carfentrazone 7.5 g a.i./h
# [14] = Table 4, 7 DAA, L-glufosinate 150, imazethapyr 75, carfentrazone 7.5 g a.i./h
# [15] = Table 4, 14 DAA, L-glufosinate 150, imazethapyr 75, carfentrazone 7.5 g a.i./h
# [16] = Table 4, 21 DAA, L-glufosinate 150, imazethapyr 75, carfentrazone 7.5 g a.i./h
# [17] = Table 4, 28 DAA, L-glufosinate 150, imazethapyr 75, carfentrazone 7.5 g a.i./h
# [18] = Table 4, 35 DAA, L-glufosinate 150, imazethapyr 75, carfentrazone 7.5 g a.i./h
# [19] = Table 7, 7 DAA, L-glufosinate 150, saflufenacil 30, triclopyr 228 g a.i./h
# [20] = Table 8, 7 DAA (head; title says 3 days), L-glufosinate 150, saflufenacil 30, triclopyr 228 g a.i./h
Compound,Control % (weedy Glycine max; [1]),Control % (weedy Glycine max; [2]),Control % (weedy Glycine max; [3]),Control % (weedy Glycine max; [4]),Control % (weedy Glycine max; [5]),Control % (weedy Glycine max; [6]),Control % (weedy Glycine max; [7]),"Control % (Spermacoce latifolia; Table 5, 7 DAA)","Control % (Spermacoce latifolia; Table 5, 14 DAA)","Control % (Spermacoce latifolia; Table 5, 21 DAA)","Control % (Spermacoce latifolia; Table 5, 28 DAA)","Control % (Spermacoce latifolia; Table 5, 35 DAA)",Control % (Brachiaria decumbens; [8]),Control % (Brachiaria decumbens; [9]),Control % (Brachiaria decumbens; [10]),Control % (Brachiaria decumbens; [11]),Control % (Brachiaria decumbens; [12]),Control % (Eleusine indica; [13]),Control % (Eleusine indica; [14]),Control % (Eleusine indica; [15]),other results
"O=C(O)COc1ccc(Cl)cc1Cl [2,4 D, 2,4-D]",49.3%,43.8%,41%,–,–,–,–,–,–,–,–,–,–,–,–,–,–,–,–,–,–
"Cc1nn(-c2cc(CC(Cl)C(=O)O)c(Cl)cc2F)c(=O)n1C(F)F (stereo not shown) [Carfentrazone, carfentrazone]",–,–,–,50.3%,44.3%,44.3%,39.3%,58.3%,64.3%,64.3%,64.3%,63.3%,14%,16.7%,15%,5%,0%,8.7%,14%,12.3%,Control % (Eleusine indica; [16]): 11%; Control % (Eleusine indica; [17]): 7.7%; Control % (Eleusine indica; [18]): 0%
"CCc1cnc(C2=NC(C)(C(C)C)C(=O)N2)c(C(=O)O)c1 (stereo not shown) [Imazethapyr, imazethapyr]",–,–,–,10%,20.0%,20.0%,15.0%,13.3%,30%,36.7%,30%,26.7%,10%,10%,15%,10%,5%,3.7%,8.3%,12%,Control % (Eleusine indica; [16]): 12.7%; Control % (Eleusine indica; [17]): 12.7%; Control % (Eleusine indica; [18]): 10%
"CP(=O)(O)CC[C@H](N)C(=O)O [L-glufosinate, (S)-2-amino-4-(hydroxy(methyl)phosphonyl)butanoic acid]",57.5%,50.6%,47.5%,60%,63.3%,63.3%,52.7%,35%,56.7%,56.7%,58.3%,58.3%,46%,54.3%,53.3%,48.3%,42%,15%,43.3%,41.3%,"Control % (weedy Glycine max; [19]): 71.9%; Control % (Brachiaria decumbens; [20]): 66.2%; Control % (Eleusine indica; [16]): 37.3%; Control % (Eleusine indica; [17]): 28.3%; Control % (Eleusine indica; [18]): 25.3%; Control % (Eleusine indica; Table 12, 3 DAA, L-glufosinate 150, imazapic and imazapyr 31.5 + 10.5 g a.i./h): 40%; Control % (Eleusine indica; Table 12, 7 DAA, L-glufosinate 150, imazapic and imazapyr 31.5 + 10.5 g a.i./h): 50%; Control % (Eleusine indica; Table 12, 14 DAA, L-glufosinate 150, imazapic and imazapyr 31.5 + 10.5 g a.i./h): 40%; Control % (Borreria verticillata; Table 10, 3 DAA): 50%; Control % (Borreria verticillata; Table 10, 7 DAA): 80%; Control % (Borreria verticillata; Table 10, 14 DAA): 95%; Control % (Borreria verticillata; Table 10, 21 DAA): 90%; Control % (Borreria verticillata; Table 10, 28 DAA): 90%; Control % (Borreria verticillata; Table 10, 35 DAA): 85%; Control % (Amaranthus viridus): 50%"
"CC(C)N(C)S(=O)(=O)NC(=O)c1cc(-n2c(=O)cc(C(F)(F)F)n(C)c2=O)c(F)cc1Cl [Saflufenacil, saflufenacil]",63.2%,52.5%,50.7%,–,–,–,–,–,–,–,–,–,–,–,–,–,–,–,–,–,Control % (weedy Glycine max; [19]): 75.4%; Control % (Brachiaria decumbens; [20]): 30%
"O=C(O)COc1nc(Cl)c(Cl)cc1Cl [Triclopyr, triclopyr]",–,–,–,–,–,–,–,–,–,–,–,–,–,–,–,–,–,–,–,–,Control % (weedy Glycine max; [19]): 67.9%; Control % (Brachiaria decumbens; [20]): 0%

# Source: patent publication US20250113826A1, “AN AGROCHEMICAL COMBINATION” (UPL LIMITED, priority 2021, published 2025)
